These results are taken from paper PMC3762829 (PLoS ONE, 2013).

Values joined by “and” are separate entries in the source; they are usually repeats but may differ in a detail not shown here. Identical values can stand only once. Like-named read-outs stand apart in the source and are kept apart here.

One series has as its system platelets. The text has this:
Platelet rich plasma was obtained from the supernatant resulting from the centrifugation of blood at 200 g at room temperature.

Series [1] deals with MG-mediated HSA glycation. To be noted: 14 days.
Excerpt: The % inhibition of AGEs formation = [1 −(fluorescence of the test group/fluorescence of the control group)] × 100.
Series [2] concerns HbA1C formation (hemoglobin). As to the kind of experiment: Hemoglobin-δ-gluconolactone (δ-Glu) assay, early stage glycation. The series is classed as biochemical, human. The protocol: The Hemoglobin-δ-gluconolactone (δ-Glu) assay was performed as per previously published procedure. All the blood samples were analyzed in triplicates. The percent inhibition of HbA1C formation by the compound was calculated by: (B-C)/(B-A)X100, where A is HbA1C concentration in the baseline control tube not treated with δ-Glu, B is the HbA1C content of the test tube treated with δ-Glu, and C is the HbA1C levels in the sample treated with both δ-Glu and the compound under study.

The subject of series [3] is GK peptide cross linking in the presence of ribose. As to the kind of experiment: N-acetyl-glycyl-lysine methyl ester (GK peptide)-ribose assay, late glycation products. The series is classed as biochemical. The protocol: GK-peptide-ribose assay was performed with slight modifications from the previously published method. […] The fluorescence of the mixture was read at 340 nm excitation wavelength and 420 nm emission wavelengths using a Shimadzu RF-5301 spectrofluorometer.

For a further series, the system named is hemoglobin. Also on record: method as in PMID 14568007. To be noted: cited from earlier work.
A further series deals with HSA glycation by DHA. It counts as biochemical, human. To be noted: HSA + 20 mM DHA.

Excerpt for HSA glycation by DHA: The method of Rahbar et al., was followed with slight modifications for the determination of percent of AGEs formed [26].

As to `N=C(N)NN` [AG, aminoguanidine], the “total lactate dehydrogenase released in the incubation medium” value (“total lactate dehydrogenase released” for short) is listed as 0±0.000% in the series on platelets (10 mM, incubation time 0 min); 2.86±0.413% in the series with platelets (10 mM, incubation time 30 min); 4.23±0.432% in the series on platelets (10 mM, incubation time 60 min); 5.81±0.134% in the series on platelets (10 mM, incubation time 90 min); 6.63±0.232% in the series on platelets (10 mM, incubation time 120 min). Also, in series [1] (10 mM, 40 mM MG, 37°C), the “inhibition of MG-catalysed HSA glycation” value was 49%. Besides, the “inhibition in the formation of HbA1c” value in series [2] (10 mM) was 15%. The “inhibition of late glycation products” value in series [3] (10 mM) is listed as 60%. Moreover, in the series with hemoglobin, the “effect on hemoglobin glycation” value was “no significant effect”. Besides, the “inhibition of fluorescence associated with AGE product formation” value with HSA glycation by DHA (10 mM) is listed as 70.1%.

On to `Cc1ncc(CO)c(CN)c1O` [PM, pyridoxamine], for which the “total lactate dehydrogenase released” value was determined as 0±0.000% in the series on platelets (human, 0 min, 20 mM); 1.23±0.235% in the series on platelets (human, 30 min, 20 mM); 2.11±0.230% in the series on platelets (human, 60 min, 20 mM); 3.23±0.212% in the series with platelets (human, 90 min, 20 mM); 3.92±0.683% in the series with platelets (human, 120 min, 22 mM); 4.14±0.334% in the series on platelets (human, 120 min, 25 mM). For the same compound, the “inhibition of MG-catalysed HSA glycation” value turned out to be 54% in series [1] (human, 10 mM, pH 7.4) and 69% in series [1] (human, 20 mM, pH 7.4). Moreover, the “inhibition in the formation of HbA1c” value was determined as 9.1% in series [2] (1 mM), 20.4% in series [2] (5 mM), 29.3% in series [2] (10 mM) and 41.1% in series [2] (20 mM). Further, the “inhibition of the formation of fluorescent products” value is 47% in series [2] (pre-incubation of fresh blood with 20 mM for 24 h, then δ-gluconolactone); 41% in series [2] (simultaneous incubation of whole blood, δ-gluconolactone and 10 mM (so in the source), data not shown). Moreover, the “inhibition of late glycation end products” value in series [3] (20 mM) amounted to 79%. Besides, the “inhibition of post-Amadori glycation and AGE formation” value with HSA glycation by DHA (20 mM) is on record as 78.4%.

As to `CN(C)C(=N)N=C(N)N` [MF, metformin], the “cytotoxicity (LDH leakage), in words” value in the series on platelets (200 µM) is on record as “not cytotoxic”; in the series with platelets (above 200 µM) it was “highly cytotoxic”. In addition, the “total lactate dehydrogenase released” value with platelets (200 µM, incubation time 0 min) is 0±0.000%; with platelets (200 µM, incubation time 30 min), 1.23±0.232%; in the series with platelets (200 µM, incubation time 60 min), 2.23±0.331%; in the series with platelets (200 µM, incubation time 90 min), 3.56±0.237%; in the series with platelets (200 µM, incubation time 120 min), 4.23% and 4.23±0.352%; with platelets (225 µM, incubation time 120 min) it was 4.51±0.312%. Further, the “total lactate dehydrogenase released” value came to 5.63±0.563% in the series with platelets (250 µM, incubation time 120 min) and 6.37±0.349% with platelets (300 µM, incubation time 120 min). The “inhibition in the formation of HbA1c” value in series [2] (10 µM) is 11.6%; in series [2] (100 µM) it was 17.1%; in series [2] (500 µM), 23.3%; in series [2] (1000 µM, simultaneous incubation), 28.1%. Besides, in series [2] (pre-incubation of fresh blood with 1000 µM for 24 h, then δ-gluconolactone), the “inhibition of the formation of fluorescent products” value was 30.3%. In addition, in series [3] (200 µM, 14 day period), the “inhibition of late glycation end products” value came out at 66%.
